Data set [1] deals with Macaca fascicularis. Briefly: Half life in monkey at 0.93 mg/kg, iv. The conditions noted are these: cynomolgus monkey, in vivo.
The nature of data set [2]: Half life in dog at 2.7 mg/kg, po. Format: ADME, organism-based, Canis lupus familiaris. Set-up: dose 2.7 mg/kg, route oral. The following applies: in vivo.
Data set [3] can be described thus: AUC in dog at 2.7 mg/kg, po. Format: ADME, organism-based, Canis lupus familiaris. The arrangement: dose 2.7 mg/kg, route oral. The conditions noted are these: plasma.
Data set [4] can be described thus: Oral bioavailability in dog at 2.7 mg/kg, po. The following applies: in vivo. Format: ADME, organism-based, Canis lupus familiaris.
Data set [5] can be described thus: Half life in dog at 0.90 mg/kg, iv. Format: ADME, organism-based, Canis lupus familiaris. The conditions noted are these: in vivo, 0.9 mg/kg. Set-up: dose 0.9 mg/kg, route intravenous.
Data set [6] can be described thus: Clearance in dog at 0.90 mg/kg, iv and 2.7 mg/kg, po. The conditions noted are these: in vivo, 0.9 mg/kg. Format: ADME, organism-based, Canis lupus familiaris.
The nature of data set [7]: Volume of distribution at steady state in dog at 0.90 mg/kg, iv and 2.7 mg/kg, po. Format: ADME, organism-based, Canis lupus familiaris. The following applies: in vivo, 0.9 mg/kg, read-out: Vdss.
Data set [8] has as its system Macaca fascicularis. Put plainly: Oral bioavailability in monkey at 4.6 mg/kg, po. The following applies: cynomolgus monkey, in vivo.
Data set [9] concerns Macaca fascicularis. Put plainly: in vivo. The following applies: cynomolgus monkey, iv, 0.93 mg/kg.
For data set [10], the system named is Macaca fascicularis. Briefly: Volume of distribution at steady state in monkey at 0.93 mg/kg, iv and 4.6 mg/kg, po. The conditions noted are these: cynomolgus monkey, in vivo, read-out: Vdss.
For data set [11], the system named is Macaca fascicularis. Briefly: Half life in monkey at 4.6 mg/kg, po. The conditions noted are these: cynomolgus monkey, in vivo.
Data set [12] in a line: AUC in monkey at 4.6 mg/kg, po. The following applies: cynomolgus monkey, plasma.

Structures are written as SMILES.

A word on the half-life: it is the time in which the quantity being followed falls by half. Usually AUC stands for the area under the concentration-time curve, a measure of exposure. As for `Cn1c(=O)cc(N2CCC[C@@H](N)C2)n(Cc2cc(F)ccc2C#N)c1=O.O=C(O)C(F)(F)F`, the half-life was 5.6 h in [1], 4.8 h in data set [2] and 1.5 h in data set [5]. This compound returned an area under the curve (AUC) in data set [3] of 2200 ng·h/mL. Moreover, the bioavailability in [4] turned out to be 90%. This compound also came in with a clearance in data set [6] of 18 mL/min/kg. The Vd in [7] stood at 4.4 L/kg.

On to `Cl.Cn1c(=O)cc(N2CCC[C@@H](N)C2)n(Cc2cc(F)ccc2C#N)c1=O`, for which, in data set [8], the bioavailability was 105%. The clearance in data set [9] was found to be 10 mL/min/kg. In addition, in data set [10], the Vd was found to be 3.3 L/kg. For the same compound, the half-life in data set [11] is 6.2 h. In data set [12], this compound gave an AUC of 8000 ng·h/mL.

Source of the values: ChEMBL document CHEMBL1649419, “Design and synthesis of pyrimidinone and pyrimidinedione inhibitors of dipeptidyl peptidase IV” (J Med Chem, 2011).
